{"source": "BindingDB's records for patent US20240270732", "about": "(Chengdu Biobel Biotechnology Co., 2024)"}
{"target": "T1, Receptor-interacting serine/threonine-protein kinase 1 (Homo sapiens, UniProt Q13546)", "T1 sequence (Q13546 whole entry)": "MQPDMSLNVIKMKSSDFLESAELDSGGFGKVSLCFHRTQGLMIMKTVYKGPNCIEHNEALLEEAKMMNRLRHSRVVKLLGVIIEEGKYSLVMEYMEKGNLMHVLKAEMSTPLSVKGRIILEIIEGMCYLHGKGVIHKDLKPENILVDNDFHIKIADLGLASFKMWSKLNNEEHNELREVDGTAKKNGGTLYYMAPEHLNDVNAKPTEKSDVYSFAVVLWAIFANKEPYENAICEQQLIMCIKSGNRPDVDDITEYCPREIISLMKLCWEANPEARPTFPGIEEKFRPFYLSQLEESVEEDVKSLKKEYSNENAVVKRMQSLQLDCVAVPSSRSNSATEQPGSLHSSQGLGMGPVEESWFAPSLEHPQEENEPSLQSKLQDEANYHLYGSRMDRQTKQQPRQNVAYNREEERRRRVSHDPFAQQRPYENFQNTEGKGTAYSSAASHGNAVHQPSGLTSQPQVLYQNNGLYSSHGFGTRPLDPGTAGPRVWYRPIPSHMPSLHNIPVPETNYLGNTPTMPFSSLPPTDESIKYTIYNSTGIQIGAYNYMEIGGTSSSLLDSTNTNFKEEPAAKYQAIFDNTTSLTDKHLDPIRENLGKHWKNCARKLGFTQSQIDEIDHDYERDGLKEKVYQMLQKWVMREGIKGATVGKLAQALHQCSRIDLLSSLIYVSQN", "assay": "Inhibitory Activity Assay", "summary_of_the_method": "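Compounds were titrated 22-point, 1:1.5 from 2 μM top concentration, in 50 mM Hepes pH 7.5, 50 mM NaCl, 30 mM MgCl2, 1 mM DTT, 0.02% CHAPS, 0.5 mg/mL BSA. After the kinase reaction, ADP-Glo reagent was added for 1 h at room temperature, then detection solution for 30 min, and luminescence was read.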", "units": {"IC50": "nM"}}
{"smiles": "CN(CCCC#Cc1ccc2c(c1)N(C)C(=O)[C@@H](NC(=O)c1ncn(Cc3ccccc3)n1)CO2)CCCC#Cc1ccc2c(c1)N(C)C(=O)[C@@H](NC(=O)c1ncn(Cc3ccccc3)n1)CO2", "note": "[US20240270732, Compound I-98]", "IC50": 17}
{"smiles": "C[C@H]1Oc2ccc(C#CCN3CCN(CC#Cc4ccc5c(c4)N(C)C(=O)[C@@H](NC(=O)c4ncn(Cc6ccccc6)n4)CO5)CC3)cc2N(C)C(=O)[C@H]1NC(=O)c1n[nH]c(Cc2ccccc2)n1", "note": "[US20240270732, Compound I-5]", "IC50": 3.35}
{"smiles": "CN1C(=O)[C@@H](NC(=O)c2n[nH]c(Cc3ccccc3)n2)COc2ccc(C#CCN3CCN(CC#CC#CCN4CCN(CC#Cc5ccc6c(c5)N(C)C(=O)[C@@H](NC(=O)c5n[nH]c(Cc7ccccc7)n5)CO6)CC4)CC3)cc21", "note": "[US20240270732, Compound I-92]", "IC50": 5.89}
{"smiles": "C#CCOCCOCCOCCOCCOCC#Cc1ccc2c(c1)N(C)C(=O)[C@@H](NC(=O)c1ncn(Cc3ccccc3)n1)CO2", "note": "[US20240270732, Compound I-85-2]", "IC50": 6.63}
{"smiles": "C#CCN1CCN(CC#Cc2ccc3c(c2)N(C)C(=O)[C@@H](NC(=O)c2ncn(Cc4cccc(O)c4)n2)[C@@H](C)O3)CC1", "note": "[US20240270732, Compound I-75]", "IC50": 21}
{"smiles": "C[C@H]1Oc2ccc(C#CCN3CCN(CC#CC#CCN4CCN(CC#Cc5ccc6c(c5)N(C)C(=O)[C@@H](NC(=O)c5ncn(Cc7ccccc7)n5)[C@@H](C)O6)CC4)CC3)cc2N(C)C(=O)[C@H]1NC(=O)c1ncn(Cc2ccccc2)n1", "note": "[US20240270732, Compound I-93]", "IC50": 5.73}
{"smiles": "C[C@H]1Oc2ccc(C#Cc3cccnc3)cc2N(C)C(=O)[C@H]1NC(=O)c1n[nH]c(Cc2ccccc2)n1", "note": "[US20240270732, Compound I-111]", "IC50": 6.69}
{"smiles": "C#CCN1CCN(CC#Cc2ccc3c(c2)N(C)C(=O)[C@@H](NC(=O)c2n[nH]c(Cc4cccc(N)c4)n2)[C@@H](C)O3)CC1", "note": "[US20240270732, Compound I-71]", "IC50": 23.9}
{"smiles": "C[C@H]1Oc2ccc(C#CCN3CCN(CC#Cc4ccc5c(c4)N(C)C(=O)[C@@H](NC(=O)c4nnn(Cc6ccccc6)n4)[C@@H](C)O5)CC3)cc2N(C)C(=O)[C@H]1NC(=O)c1nnn(Cc2ccccc2)n1", "note": "[US20240270732, Compound I-56]", "IC50": 7.44}
{"smiles": "C#CCN1CCN(CC#Cc2ccc3c(c2)N(C)C(=O)[C@@H](NC(=O)c2ncn(Cc4ccccc4)n2)CO3)CC1", "note": "[US20240270732, Compound I-29]", "IC50": 2.88}
{"smiles": "CN(CCCC#Cc1ccc2c(c1)N(C)C(=O)[C@@H](NC(=O)c1n[nH]c(Cc3ccccc3)n1)CO2)CCCC#Cc1ccc2c(c1)N(C)C(=O)[C@@H](NC(=O)c1n[nH]c(Cc3ccccc3)n1)CO2", "note": "[US20240270732, Compound I-96]", "IC50": 18.5}
{"smiles": "C[C@H]1Oc2ccc(C#CCCCCC(=O)O)cc2N(C)C(=O)[C@H]1NC(=O)c1ncn(Cc2ccccc2)n1", "note": "[US20240270732, Compound I-108]", "IC50": 20.5}
{"smiles": "C#CCN1CCN(CC#Cc2ccc3c(c2)N(C)C(=O)[C@@H](NC(=O)c2nnn(Cc4ccccc4)n2)[C@@H](C)O3)CC1", "note": "[US20240270732, Compound I-55]", "IC50": 8.91}
{"smiles": "CN1C(=O)[C@@H](NC(=O)c2ncn(Cc3ccccc3)n2)COc2ccc(C#CCN3CCN(CC#CC#CCN4CCN(CC#Cc5ccc6c(c5)N(C)C(=O)[C@@H](NC(=O)c5ncn(Cc7ccccc7)n5)CO6)CC4)CC3)cc21", "note": "[US20240270732, Compound I-94]", "IC50": 6.16}
{"smiles": "C[C@H]1Oc2ccc(C#CCOCCOCCOCCOCCOCC#CC#CCOCCOCCOCCOCCOCC#Cc3ccc4c(c3)N(C)C(=O)[C@@H](NC(=O)c3n[nH]c(Cc5ccccc5)n3)[C@@H](C)O4)cc2N(C)C(=O)[C@H]1NC(=O)c1n[nH]c(Cc2ccccc2)n1", "note": "[US20240270732, Compound I-87]", "IC50": 6.32}
{"smiles": "C#CCN1CCN(CC#Cc2ccc3c(c2)N(C)C(=O)[C@@H](NC(=O)c2ncn(Cc4cccnc4)n2)[C@@H](C)O3)CC1", "note": "[US20240270732, Compound I-73]", "IC50": 19.1}
{"smiles": "C#CCN1CCN(CC#Cc2ccc3c(c2)N(C)C(=O)[C@@H](NC(=O)c2ncn(Cc4cccc(N)c4)n2)[C@@H](C)O3)CC1", "note": "[US20240270732, Compound I-77]", "IC50": 29}
{"smiles": "C[C@H]1Oc2ccc(C#CCN3CCN(CC#Cc4ccc5c(c4)N(C)C(=O)[C@@H](NC(=O)c4n[nH]c(Cc6ccncc6)n4)[C@@H](C)O5)CC3)cc2N(C)C(=O)[C@H]1NC(=O)c1n[nH]c(Cc2ccncc2)n1", "note": "[US20240270732, Compound I-66]", "IC50": 18.8}
{"smiles": "C[C@H]1Oc2ccc(C#Cc3cccc([N+](=O)[O-])c3)cc2N(C)C(=O)[C@H]1NC(=O)c1ncn(Cc2ccccc2)n1", "note": "[US20240270732, Compound I-116]", "IC50": 7.99}
{"smiles": "C#CCN1CCN(CC#Cc2ccc3c(c2)N(C)C(=O)[C@@H](NC(=O)c2n[nH]c(Cc4ccccc4)n2)[C@H](C)O3)CC1", "note": "[US20240270732, Compound I-18]", "IC50": 57.7}
{"smiles": "C[C@H]1Oc2ccc(C#CCN3CCN(CC#Cc4ccc5c(c4)N(C)C(=O)[C@@H](NC(=O)c4ncn(Cc6ccccc6)n4)[C@@H](C)O5)CC3)cc2N(C)C(=O)[C@H]1NC(=O)c1cn(Cc2ccccc2)cn1", "note": "[US20240270732, Compound I-27]", "IC50": 4}
{"smiles": "C[C@H]1Oc2ccc(C#CCCCCC#Cc3ccc4c(c3)N(C)C(=O)[C@@H](NC(=O)c3n[nH]c(Cc5ccccc5)n3)[C@@H](C)O4)cc2N(C)C(=O)[C@H]1NC(=O)c1n[nH]c(Cc2ccccc2)n1", "note": "[US20240270732, Compound I-79]", "IC50": 10.5}
{"smiles": "C[C@H]1Oc2ccc(C#CCN3CCN(CC#Cc4ccc5c(c4)N(C)C(=O)[C@@H](NC(=O)c4noc(Cc6ccccc6)n4)[C@@H](C)O5)CC3)cc2N(C)C(=O)[C@H]1NC(=O)c1noc(Cc2ccccc2)n1", "note": "[US20240270732, Compound I-52]", "IC50": 13.3}
{"smiles": "C[C@H]1Oc2ccc(C#CCN3CCN(CC#Cc4ccc5c(c4)N(C)C(=O)[C@@H](NC(=O)c4cn(Cc6ccccc6)nn4)[C@@H](C)O5)CC3)cc2N(C)C(=O)[C@H]1NC(=O)c1cn(Cc2ccccc2)nn1", "note": "[US20240270732, Compound I-54]", "IC50": 14.7}
{"smiles": "C[C@@H]1Oc2ccc(C#CCN3CCN(CC#Cc4ccc5c(c4)N(C)C(=O)[C@@H](NC(=O)c4cn(Cc6ccccc6)cn4)[C@H](C)O5)CC3)cc2N(C)C(=O)[C@H]1NC(=O)c1cn(Cc2ccccc2)cn1", "note": "[US20240270732, Compound I-64]", "IC50": 62.2}
{"smiles": "C[C@H]1Oc2ccc(C#CCOCCOCCOCCOCCOCC#Cc3ccc4c(c3)N(C)C(=O)[C@@H](NC(=O)c3ncn(Cc5ccccc5)n3)[C@@H](C)O4)cc2N(C)C(=O)[C@H]1NC(=O)c1ncn(Cc2ccccc2)n1", "note": "[US20240270732, Compound I-84-1]", "IC50": 8.99}
{"smiles": "C[C@H]1Oc2ccc(C#Cc3cccc(S(=O)(=O)O)c3)cc2N(C)C(=O)[C@H]1NC(=O)c1ncn(Cc2ccccc2)n1", "note": "[US20240270732, Compound I-114]", "IC50": 11.7}
{"smiles": "CN1C(=O)[C@@H](NC(=O)c2ncn(Cc3ccccc3)n2)COc2ccc(C#CCN3CCN(CC#Cc4ccc5c(c4)N(C)C(=O)[C@@H](NC(=O)c4ncn(Cc6ccccc6)n4)CO5)CC3)cc21", "note": "[US20240270732, Compound I-32]", "IC50": 3.08}
{"smiles": "C#CCN1CCN(CC#Cc2ccc3c(c2)N(C)C(=O)[C@@H](NC(=O)c2n[nH]c(Cc4ccncc4)n2)[C@@H](C)O3)CC1", "note": "[US20240270732, Compound I-65]", "IC50": 20.7}
{"smiles": "CN1C(=O)[C@@H](NC(=O)c2n[nH]c(Cc3ccccc3)n2)COc2ccc(CCCN3CCN(CCCc4ccc5c(c4)N(C)C(=O)[C@@H](NC(=O)c4n[nH]c(Cc6ccccc6)n4)CO5)CC3)cc21", "note": "[US20240270732, Compound I-123]", "IC50": 3.17}
{"smiles": "CN1C(=O)[C@@H](NC(=O)c2ncn(Cc3ccccc3)n2)COc2ccc(CCCN3CCN(CCCc4ccc5c(c4)N(C)C(=O)[C@@H](NC(=O)c4ncn(Cc6ccccc6)n4)CO5)CC3)cc21", "note": "[US20240270732, Compound I-121]", "IC50": 4.92}
{"smiles": "COCCOCCOCCOCCOCC#Cc1ccc2c(c1)N(C)C(=O)[C@@H](NC(=O)c1n[nH]c(Cc3ccccc3)n1)CO2", "note": "[US20240270732, Compound I-100]", "IC50": 1.47}
{"smiles": "C[C@H]1Oc2ccc(C#Cc3cccc([N+](=O)[O-])c3)cc2N(C)C(=O)[C@H]1NC(=O)c1n[nH]c(Cc2ccccc2)n1", "note": "[US20240270732, Compound I-115]", "IC50": 7.35}
{"smiles": "C[C@H]1Oc2ccc(C#CCN3CCN(CC#Cc4ccc5c(c4)N(C)C(=O)[C@@H](NC(=O)c4nnn(Cc6ccccc6)n4)CO5)CC3)cc2N(C)C(=O)[C@H]1NC(=O)c1n[nH]c(Cc2ccccc2)n1", "note": "[US20240270732, Compound I-7]", "IC50": 7.81}
{"smiles": "O=C(N[C@H]1COc2ccc(C#CCN3CCN(CC#Cc4ccc5c(c4)NC(=O)[C@@H](NC(=O)c4ncn(Cc6ccccc6)n4)CO5)CC3)cc2NC1=O)c1ncn(Cc2ccccc2)n1", "note": "[US20240270732, Compound I-42]", "IC50": 5.03}
{"smiles": "C#CCN1CCN(CC#Cc2ccc3c(c2)N(C)C(=O)[C@@H](NC(=O)c2cn(Cc4ccccc4)cn2)CO3)CC1", "note": "[US20240270732, Compound I-61]", "IC50": 8.43}
{"smiles": "CN1C(=O)[C@@H](NC(=O)c2cn(Cc3ccccc3)cn2)COc2ccc(C#CCN3CCN(CC#Cc4ccc5c(c4)N(C)C(=O)[C@@H](NC(=O)c4ncn(Cc6ccccc6)n4)CO5)CC3)cc21", "note": "[US20240270732, Compound I-34]", "IC50": 4.68}
